Results on one compound are retold here after publication PMC11767077, “Experimental Validation of Antiobesogenic and Osteoprotective Efficacy of Ginsenoside CK via Targeting Lipid and Atherosclerosis Pathways” (Life, 2024).

Values after ≈ are worked out from the molar mass of the structure shown.

This test deals with α-glucosidase. The test is described as follows: p-NPG colorimetric enzyme assay, […] nm, commercial α-glucosidase. The class given is biochemical.

What is called IC50 is the concentration at which inhibition is half-maximal. A high value points to weaker potency in that assay. Take `CC(C)=CCC[C@](C)(O[C@@H]1O[C@H](CO)[C@@H](O)[C@H](O)[C@H]1O)[C@H]1CC[C@]2(C)[C@@H]1[C@H](O)C[C@@H]1[C@@]3(C)CC[C@H](O)C(C)(C)[C@@H]3CC[C@]12C` [CK, ginsenoside CK]: the IC50 was 22.83 µg/mL (≈ 36.7 µM).
